Experimental data published in US12156909B2, “Reverse peptide vaccine” (Emergex Vaccines Holding Limited, priority 2018, dated 2024).

Key:
MHC class I = format: cell-based
HLA-A24 = assay: HLA binding of NEG8 peptides shared with other flu proteins (Table 5), A24; conditions: no method or unit given
Excerpt: (§1) was used to search datasets of T cell epitopes derived from influenza virus infected cells. The NEG8 peptides described in Examples 1 and 2 were also identified using this search. The purpose of performing the search was to establish whether any NEG8 peptides or sequences within the polypeptide encoded by the NEG8 ORF are shared with any other influenza A virus proteins. Table 5 sets out T cell epitopes derived from influenza A virus proteins other than NEG8 that are also comprised in one or more of the NEG8 peptides identified in Examples 1 and 2 or the polypeptide encoded by the NEG8 ORF. From this, numerous NEG8 peptides considered to bind to MHC in cells infected with influenza A virus can be identified based on confidence level, XCorr, and performance of fragment mass spectra.

HLA-B7 = assay: HLA binding of NEG8 peptides shared with other flu proteins (Table 5), B7; conditions: score printed after 'B7:'; no method or unit given
Excerpt: as §1

HLA-A2 = assay: HLA binding of NEG8 peptides shared with other flu proteins (Table 5), A2; conditions: score printed after 'A2:'; no method or unit given
Excerpt: as §1

Sequence: LMQRGPSTF (Influenza A virus)
- found in influenza A virus-infected cells (MHC class I): truly found in influenza A virus-infected cells

Sequence: KITLKFAFNMM (Influenza A virus)
- found in influenza A virus-infected cells (MHC class I): truly found in influenza A virus-infected cells

Sequence: AILSLQTFD (Influenza A virus)
- HLA binding A24 (HLA-A24): A24:2

Sequence: AFSVMFLSM
- HLA binding A24 (HLA-A24): A24:7

Sequence: ALSSIRVSS (Influenza A virus)
- HLA binding B7 (HLA-B7): B7:7
- HLA binding A2 (HLA-A2): A2:16

Sequence: FLICVSPLQL (Influenza A virus)
- HLA binding A24 (HLA-A24): A24:13
- HLA binding A2 (HLA-A2): A2:24

Sequence: AFNMMFLSM
- HLA binding A24 (HLA-A24): A24:7
- HLA binding A2 (HLA-A2): A2:10

Sequence: LFLICVSLL (Influenza A virus)
- HLA binding A24 (HLA-A24): A24:21
- HLA binding A2 (HLA-A2): A2:18

Sequence: IAPSSVKALS (Influenza A virus)
- found in influenza A virus-infected cells (MHC class I): truly found in influenza A virus-infected cells

Sequence: SPLQLAILSL (Influenza A virus)
- HLA binding B7 (HLA-B7): B7:22
